# Measurements as given in publication PMC8037182, “Solvothermal Synthesis of Multiple Dihydropyrimidinones at a Time as Inhibitors of Eg5” (Molecules, 2021).
# Legend:
# T24 cell line = assay: Cytotoxicity MTS assay, T24 cell line; format: cell-based; settings: for OD490 Mean / OD490 Well 1 / OD490 Well 2 / OD490 Well 3: T24 cell line
# Description: (§1) The positive compounds (IC50 < 100 μM) obtained from the primary Eg5 motor protein ATPase assay were tested for antiproliferative activity in vitro against Caco-2 cell line, Hela cell line, L929 cell line and T24 cell line by performing MTS assay. Cells were introduced into 96-well plates at a density of 1000 cells per well. After 24 h incubation, the cells were exposed with compounds at final concentrations ranging from 0.5 to 100 µM for 24 h. DMSO was used at a final concentration of 0.025% as blank control, monastrol was used as the positive control. Then 20 µL (CellTiter 96® AQueous One Solution Promega, Madison, WI, USA) reagent was added in each well. After 2 h at 37 °C in a 80% humidified, 5% CO2 atmosphere, the absorbance at 490 nm was recorded using a microplate reader (BIO-RAD iMark^TM). The results were obtained in three independent duplicate experiments. The primary data were shown in Supplementary Materials Tables S4–S7. The IC50 values for these compounds were calculated from a non-linear regression graph plotted between the percentage of cell viability and concentration with SPSS17.0 software.
# Caco-2 cell line = assay: Cytotoxicity MTS assay, Caco-2 cell line; format: cell-based; settings: for OD490 Mean / OD490 Well 1 / OD490 Well 2 / OD490 Well 3: Caco-2 cell line
# Description: as §1
smiles,measurement,setting,value
CCOC(=O)c1[nH]c(C2NC(=O)NC(C)=C2C(=O)Nc2ccccc2C)c(C(=O)OC)c1C (centres unmarked) [D4],IC50,"T24 cell line; MTS assay, 24 h exposure",129 µM
same,OD490 Mean,"T24 cell line; 0.5μM, first assay",1.9335
same,OD490 Well 1,"T24 cell line; 0.5μM, first assay",1.4364
same,OD490 Well 2,"T24 cell line; 0.5μM, first assay",2.2473
same,OD490 Well 3,"T24 cell line; 0.5μM, first assay",2.1169
same,OD490 Mean,"T24 cell line; 0.5μM, second assay",1.7407
same,OD490 Well 1,"T24 cell line; 0.5μM, second assay",1.6852
same,OD490 Well 2,"T24 cell line; 0.5μM, second assay",1.7785
same,OD490 Well 3,"T24 cell line; 0.5μM, second assay",1.7585
same,OD490 Mean,"T24 cell line; 0.5μM, third assay",1.7395
same,OD490 Well 1,"T24 cell line; 0.5μM, third assay",1.7423
same,OD490 Well 2,"T24 cell line; 0.5μM, third assay",1.7741
same,OD490 Well 3,"T24 cell line; 0.5μM, third assay",1.7022
same,OD490 Mean,"T24 cell line; 1μM, first assay",2.0004
same,OD490 Well 1,"T24 cell line; 1μM, first assay",1.9146
same,OD490 Well 2,"T24 cell line; 1μM, first assay",1.8237
same,OD490 Well 3,"T24 cell line; 1μM, first assay",2.2630
same,OD490 Mean,"T24 cell line; 1μM, second assay",1.6895
same,OD490 Well 1,"T24 cell line; 1μM, second assay",1.7235
same,OD490 Well 2,"T24 cell line; 1μM, second assay",1.6895
same,OD490 Well 3,"T24 cell line; 1μM, second assay",1.6555
same,OD490 Mean,"T24 cell line; 1μM, third assay",1.7159
same,OD490 Well 1,"T24 cell line; 1μM, third assay",1.7423
same,OD490 Well 2,"T24 cell line; 1μM, third assay",1.7020
same,OD490 Well 3,"T24 cell line; 1μM, third assay",1.7033
same,OD490 Mean,"T24 cell line; 10μM, first assay",1.7700
same,OD490 Well 1,"T24 cell line; 10μM, first assay",1.7289
same,OD490 Well 2,"T24 cell line; 10μM, first assay",1.7432
same,OD490 Well 3,"T24 cell line; 10μM, first assay",1.8379
same,OD490 Mean,"T24 cell line; 10μM, second assay",1.7224
same,OD490 Well 1,"T24 cell line; 10μM, second assay",1.6895
same,OD490 Well 2,"T24 cell line; 10μM, second assay",1.7125
same,OD490 Well 3,"T24 cell line; 10μM, second assay",1.7652
same,OD490 Mean,"T24 cell line; 10μM, third assay",1.7024
same,OD490 Well 1,"T24 cell line; 10μM, third assay",1.6647
same,OD490 Well 2,"T24 cell line; 10μM, third assay",1.7424
same,OD490 Well 3,"T24 cell line; 10μM, third assay",1.7000
same,OD490 Mean,"T24 cell line; 25μM, first assay",1.7511
same,OD490 Well 1,"T24 cell line; 25μM, first assay",1.6328
same,OD490 Well 2,"T24 cell line; 25μM, first assay",1.8078
same,OD490 Well 3,"T24 cell line; 25μM, first assay",1.8128
same,OD490 Mean,"T24 cell line; 25μM, second assay",1.5821
same,OD490 Well 1,"T24 cell line; 25μM, second assay",1.5660
same,OD490 Well 2,"T24 cell line; 25μM, second assay",1.5848
same,OD490 Well 3,"T24 cell line; 25μM, second assay",1.5954
same,OD490 Mean,"T24 cell line; 25μM, third assay",1.5535
same,OD490 Well 1,"T24 cell line; 25μM, third assay",1.5385
same,OD490 Well 2,"T24 cell line; 25μM, third assay",1.5232
same,OD490 Well 3,"T24 cell line; 25μM, third assay",1.5987
same,OD490 Mean,"T24 cell line; 50μM, first assay",1.6313
same,OD490 Well 1,"T24 cell line; 50μM, first assay",1.6866
same,OD490 Well 2,"T24 cell line; 50μM, first assay",1.7561
same,OD490 Well 3,"T24 cell line; 50μM, first assay",1.4513
same,OD490 Mean,"T24 cell line; 50μM, second assay",1.4096
same,OD490 Well 1,"T24 cell line; 50μM, second assay",1.4425
same,OD490 Well 2,"T24 cell line; 50μM, second assay",1.4212
same,OD490 Well 3,"T24 cell line; 50μM, second assay",1.3652
same,OD490 Mean,"T24 cell line; 50μM, third assay",1.4169
same,OD490 Well 1,"T24 cell line; 50μM, third assay",1.4284
same,OD490 Well 2,"T24 cell line; 50μM, third assay",1.4022
same,OD490 Well 3,"T24 cell line; 50μM, third assay",1.4202
same,OD490 Mean,"T24 cell line; 100μM, first assay",1.4469
same,OD490 Well 1,"T24 cell line; 100μM, first assay",1.4538
same,OD490 Well 2,"T24 cell line; 100μM, first assay",1.4557
same,OD490 Well 3,"T24 cell line; 100μM, first assay",1.4313
same,OD490 Mean,"T24 cell line; 100μM, second assay",1.2781
same,OD490 Well 1,"T24 cell line; 100μM, second assay",1.3325
same,OD490 Well 2,"T24 cell line; 100μM, second assay",1.2654
same,OD490 Well 3,"T24 cell line; 100μM, second assay",1.2365
same,OD490 Mean,"T24 cell line; 100μM, third assay",1.2819
same,OD490 Well 1,"T24 cell line; 100μM, third assay",1.2539
same,OD490 Well 2,"T24 cell line; 100μM, third assay",1.3332
same,OD490 Well 3,"T24 cell line; 100μM, third assay",1.2585
same,OD490 Mean,"Caco-2 cell line; 0.5μM, first assay",0.5704
same,OD490 Well 1,"Caco-2 cell line; 0.5μM, first assay",0.5884
same,OD490 Well 2,"Caco-2 cell line; 0.5μM, first assay",0.5582
same,OD490 Well 3,"Caco-2 cell line; 0.5μM, first assay",0.5647
same,OD490 Mean,"Caco-2 cell line; 0.5μM, second assay",0.5955
same,OD490 Well 1,"Caco-2 cell line; 0.5μM, second assay",0.5407
same,OD490 Well 2,"Caco-2 cell line; 0.5μM, second assay",0.6416
same,OD490 Well 3,"Caco-2 cell line; 0.5μM, second assay",0.6041
same,OD490 Mean,"Caco-2 cell line; 0.5μM, third assay",0.6609
same,OD490 Well 1,"Caco-2 cell line; 0.5μM, third assay",0.6698
same,OD490 Well 2,"Caco-2 cell line; 0.5μM, third assay",0.6201
same,OD490 Well 3,"Caco-2 cell line; 0.5μM, third assay",0.6928
same,OD490 Mean,"Caco-2 cell line; 1μM, first assay",0.5753
same,OD490 Well 1,"Caco-2 cell line; 1μM, first assay",0.5948
same,OD490 Well 2,"Caco-2 cell line; 1μM, first assay",0.5673
same,OD490 Well 3,"Caco-2 cell line; 1μM, first assay",0.5637
same,OD490 Mean,"Caco-2 cell line; 1μM, second assay",0.6402
same,OD490 Well 1,"Caco-2 cell line; 1μM, second assay",0.6433
same,OD490 Well 2,"Caco-2 cell line; 1μM, second assay",0.6589
same,OD490 Well 3,"Caco-2 cell line; 1μM, second assay",0.6185
same,OD490 Mean,"Caco-2 cell line; 1μM, third assay",0.6218
same,OD490 Well 1,"Caco-2 cell line; 1μM, third assay",0.6635
same,OD490 Well 2,"Caco-2 cell line; 1μM, third assay",0.6890
same,OD490 Well 3,"Caco-2 cell line; 1μM, third assay",0.5129
same,OD490 Mean,"Caco-2 cell line; 10μM, first assay",0.5338
same,OD490 Well 1,"Caco-2 cell line; 10μM, first assay",0.5500
same,OD490 Well 2,"Caco-2 cell line; 10μM, first assay",0.5282
same,OD490 Well 3,"Caco-2 cell line; 10μM, first assay",0.5233
same,OD490 Mean,"Caco-2 cell line; 10μM, second assay",0.5742
same,OD490 Well 1,"Caco-2 cell line; 10μM, second assay",0.5277
same,OD490 Well 2,"Caco-2 cell line; 10μM, second assay",0.6414
same,OD490 Well 3,"Caco-2 cell line; 10μM, second assay",0.5536
same,OD490 Mean,"Caco-2 cell line; 10μM, third assay",0.5630
same,OD490 Well 1,"Caco-2 cell line; 10μM, third assay",0.5899
same,OD490 Well 2,"Caco-2 cell line; 10μM, third assay",0.5614
same,OD490 Well 3,"Caco-2 cell line; 10μM, third assay",0.5377
same,OD490 Mean,"Caco-2 cell line; 25μM, first assay",0.5869
same,OD490 Well 1,"Caco-2 cell line; 25μM, first assay",0.5783
same,OD490 Well 2,"Caco-2 cell line; 25μM, first assay",0.5766
same,OD490 Well 3,"Caco-2 cell line; 25μM, first assay",0.6058
same,OD490 Mean,"Caco-2 cell line; 25μM, second assay",0.5033
same,OD490 Well 1,"Caco-2 cell line; 25μM, second assay",0.5352
same,OD490 Well 2,"Caco-2 cell line; 25μM, second assay",0.4777
same,OD490 Well 3,"Caco-2 cell line; 25μM, second assay",0.4969
same,OD490 Mean,"Caco-2 cell line; 25μM, third assay",0.5111
same,OD490 Well 1,"Caco-2 cell line; 25μM, third assay",0.5123
same,OD490 Well 2,"Caco-2 cell line; 25μM, third assay",0.4876
same,OD490 Well 3,"Caco-2 cell line; 25μM, third assay",0.5333
same,OD490 Mean,"Caco-2 cell line; 50μM, first assay",0.5039
same,OD490 Well 1,"Caco-2 cell line; 50μM, first assay",0.4576
same,OD490 Well 2,"Caco-2 cell line; 50μM, first assay",0.5055
same,OD490 Well 3,"Caco-2 cell line; 50μM, first assay",0.5485
same,OD490 Mean,"Caco-2 cell line; 50μM, second assay",0.4399
same,OD490 Well 1,"Caco-2 cell line; 50μM, second assay",0.41
same,OD490 Well 2,"Caco-2 cell line; 50μM, second assay",0.4612
same,OD490 Well 3,"Caco-2 cell line; 50μM, second assay",0.4486
same,OD490 Mean,"Caco-2 cell line; 50μM, third assay",0.4077
same,OD490 Well 1,"Caco-2 cell line; 50μM, third assay",0.4412
same,OD490 Well 2,"Caco-2 cell line; 50μM, third assay",0.4698
same,OD490 Well 3,"Caco-2 cell line; 50μM, third assay",0.3120
same,OD490 Mean,"Caco-2 cell line; 100μM, first assay",0.3850
same,OD490 Well 1,"Caco-2 cell line; 100μM, first assay",0.4202
same,OD490 Well 2,"Caco-2 cell line; 100μM, first assay",0.3796
same,OD490 Well 3,"Caco-2 cell line; 100μM, first assay",0.3553
same,OD490 Mean,"Caco-2 cell line; 100μM, second assay",0.3934
same,OD490 Well 1,"Caco-2 cell line; 100μM, second assay",0.4418
same,OD490 Well 2,"Caco-2 cell line; 100μM, second assay",0.3643
same,OD490 Well 3,"Caco-2 cell line; 100μM, second assay",0.3741
same,OD490 Mean,"Caco-2 cell line; 100μM, third assay",0.4011
same,OD490 Well 1,"Caco-2 cell line; 100μM, third assay",0.3698
same,OD490 Well 2,"Caco-2 cell line; 100μM, third assay",0.4013
same,OD490 Well 3,"Caco-2 cell line; 100μM, third assay",0.4321
same,IC50,"Caco-2 cell line; MTS assay, 24 h exposure",80.5 µM
